The values below come from US11040031B2, “Pyrazole derivatives as MALT1 inhibitors” (Janssen Pharmaceutica NV, priority 2018, dated 2021).

Read-outs that look alike come from different tables or passages of the source.

Experiment [1] deals with Secretion of IL10 by TMD8 ABC-DLBCL cells. The experiment can be described thus: Human IL10 Mesoscale assay (TMD-8). As to conditions: read-out: Human IL10 Mesoscale assay (TMD-8). The class given is cell-based. As for the experimental part: (§1) NFKB signaling regulates the secretion of multiple cytokines, including IL6 and IL10. Secretion of the cytokines IL6 and IL10 by TMD8 or OCI-LY3 ABC-DLBCL cells was measured using a mesoscale assay.
(§2) Cell passage number should not exceed 30. Cells should be kept between 0.5-2.5 million cells per mL during culturing and cells should be supplemented every 2-3 days with fresh 50 µM beta-mercaptoenthanol. No beta-mercaptoethanol was used during the mesoscale assay.
(§3) DMSO control wells were used to determine the maximum signal (High Control (HC)). […] Compounds and cells were incubated for 24 h at 37° C. and 5% CO2 (assay volume is 150 μL). After 24 h of incubation 50 μL of the supernatant was transferred to a MSD plate (V-Plex Proinflammation Panel 1 (human) kit, Mesoscale (MSD)) and incubated for 2 h with vigorous shaking (600 rpm) at room temperature. Following incubation, plates were washed 3× with PBS+0.05% Tween-20 and 25 μL detection antibody solution (IL6 & IL10 antibodies in diluent 3 (MSD)) was added per well followed by 2 h of incubation with vigorous shaking (600 rpm) at room temperature. After 3× washes with PBS+0.05% Tween-20, plates were incubated with 150 μL 2× Read Buffer T and read on SECTOR imager.

For experiment [2], the target named is T1, full-length MALT1 protein (Strep-MALT1(1-824)-His) (Homo sapiens, UniProt Q9UDY8).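 Further: fluorogenic LRSR-AMC substrate cleavage by MALT1, 50 min compound preincubation then 4 h reaction at RT, 11-point dilution from 30 µM, scaled between enzyme-free and untreated enzyme controls.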
T1 sequence (Q9UDY8 1-824): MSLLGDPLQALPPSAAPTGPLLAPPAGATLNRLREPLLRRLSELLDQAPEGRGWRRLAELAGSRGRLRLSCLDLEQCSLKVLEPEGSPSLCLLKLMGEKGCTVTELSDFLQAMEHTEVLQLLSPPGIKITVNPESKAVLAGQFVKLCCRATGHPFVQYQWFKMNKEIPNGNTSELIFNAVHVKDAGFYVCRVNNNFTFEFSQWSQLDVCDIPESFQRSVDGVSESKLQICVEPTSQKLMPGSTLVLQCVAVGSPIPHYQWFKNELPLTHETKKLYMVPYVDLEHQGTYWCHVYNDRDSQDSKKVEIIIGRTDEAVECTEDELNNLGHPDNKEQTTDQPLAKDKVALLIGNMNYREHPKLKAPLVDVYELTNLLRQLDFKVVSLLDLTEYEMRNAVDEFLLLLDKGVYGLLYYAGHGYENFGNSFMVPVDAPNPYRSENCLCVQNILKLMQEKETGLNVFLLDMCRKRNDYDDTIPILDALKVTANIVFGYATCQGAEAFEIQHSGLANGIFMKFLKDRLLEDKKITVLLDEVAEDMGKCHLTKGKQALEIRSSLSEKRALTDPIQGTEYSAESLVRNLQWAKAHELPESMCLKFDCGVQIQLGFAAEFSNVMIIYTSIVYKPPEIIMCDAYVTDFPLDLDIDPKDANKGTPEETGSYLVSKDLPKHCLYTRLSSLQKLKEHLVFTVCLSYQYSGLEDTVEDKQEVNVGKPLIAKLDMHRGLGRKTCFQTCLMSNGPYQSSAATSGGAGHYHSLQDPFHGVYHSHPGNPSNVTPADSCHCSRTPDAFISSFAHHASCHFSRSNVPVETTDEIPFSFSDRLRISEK
The experiment can be described thus: biochemical.
Method: MALT1 protease activity was assessed in an in vitro assay using a tetrapeptide as substrate and full-length MALT1 protein (Strep-MALT1(1-824)-His) purified from baculovirus-infected insect cells. The tetrapeptide LRSR is coupled to AMC (7-amino-4-methylcoumarin) and provides a quenched, fluorescent substrate for the MALT1 protease (SM Biochemicals). Cleavage of AMC from the Arginine residue results in an increase in coumarin fluorescence measured at 460 nm (excitation 355 nm). […] Test compounds were spotted at 50 nL in 100% DMSO per well of a black 384-Proxiplate (Perkin Elmer). Test compound concentrations ranged from 30 μM to 0.5 nM using 11 dilution steps (1:3). Background signal was measured from control wells containing assay buffer without enzyme which functions as low control (LC). High control (HC) values were generated using the reaction with enzyme but no compound treatment. Compounds were pre-incubated with MALT1 enzyme for 50 minutes at RT. Substrate was added subsequently and fluorescence was measured in Labsystems fluoroskan at excitation 355 nm and emission 460 nm to determine time 0. The reaction was subsequently incubated for 4 h at RT and fluorescence was measured. […] The enzyme reaction was linear during the 4 h incubation period.
IC50 values were calculated using the following formula (Z prime should be >0.5):
From this an IC50 value (inhibitory concentration causing 50% inhibition) can be obtained. An estimate of the slope of the plot in terms of the Hill coefficient was also obtained.
With y=estimated response • UB=upper bound • LB=lower bound • h=hill

Experiment [3] concerns Secretion of IL6 by TMD8 ABC-DLBCL cells. The experiment can be described thus: Human IL6 Mesoscale assay (TMD-8). It is filed as cell-based. The note with it: read-out: Human IL6 Mesoscale assay (TMD-8). On the procedure:
as §1, §2, §3

The test system of experiment [4] is OCI-Ly3 ABC-DLBCL cell line. The experiment is described as follows: 4-day proliferation assay OCI-Ly3. The class given is cell-based. As to conditions: Homo sapiens, read-out: Anti-proliferation: OCI-LY-3 IC50. As for the experimental part:
To assess anti-proliferative effects, MALT1 inhibitor test compounds were tested in 4-day proliferation assays using three different DLBCL cell lines.
Cells should be kept between 0.5-2.5 million cells per mL during culturing and cells should be supplemented every 2-3 days with fresh 50 μM beta-mercaptoenthanol. No beta-mercaptoethanol is used during the proliferation assay. OCI-Ly7 cells were propagated in IMDM (ThermoFisher) supplemented with 10% fetal bovine serum (HyClone), 2 mM L-glutamine (Sigma Aldrich) and 50 μg/mL Gentamycin. Cell passage numbers should not exceed 30.
10,000 TMD8, 10,000 OCI-Ly3 or 2,000 OCI-Ly7 cells were seeded in 100 μL media per well and incubated for 4 days at 37° C. and 5% CO2. Cell plating numbers were chosen based on growth curves to ensure linear cell growth. After 4 days of incubation 50 μl CellTiterGLO reagent (Promega) were added to each well and luminescence was measured on the Envision after 10 min of incubation at room temperature.

Experiment [5] concerns Secretion of IL6 by OCI-LY3 ABC-DLBCL cells. The experiment is described as follows: Human IL6 Mesoscale assay (OCI-LY3). The class given is cell-based. The note with it: OCI-LY3 cells, 24 h incubation, supernatant, MSD V-Plex, read-out: Human IL6 Mesoscale assay (OCI-LY3). Put shortly:
(§4)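 TMD8 or OCI-LY3 ABC-DLBCL cells incubated with compound 24 h at 37° C without beta-mercaptoethanol. Secreted IL6 and IL10 in supernatant quantified by MSD electrochemiluminescence immunoassay; DMSO wells define maximum signal.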

For experiment [6], the system named is Secretion of IL10 by OCI-LY3 ABC-DLBCL cells. The experiment can be described thus: Human IL10 Mesoscale assay (OCI-LY3). The class given is cell-based. As to conditions: OCI-LY3 cells, 24 h incubation, supernatant, MSD V-Plex, read-out: Human IL10 Mesoscale assay (OCI-LY3). The gist of the method:
as §4

Where [7] appears, read: TMD8 cells, 24 h incubation, supernatant, MSD V-Plex.
Setting [8] is: 96 h, 10,000 OCI-Ly3 cells per well, 4 days, CellTiterGLO.

Take `Cc1cc(Cl)ccc1-n1ncc(C(=O)Nc2cnc(-n3nccn3)c(Cl)c2)c1C(F)(F)F` [Cpd 2, 1-(4-Chloro-2-methylphenyl)-N-(5-chloro-6-(2H-1,2,3-triazol-2-yl)pyridin-3-yl)-5-(trifluoromethyl)-1H-pyrazole-4-carboxamide]: the IC50 stood at 65 nM in experiment [1] (setting [7]), 132 nM in experiment [2], 148 nM in experiment [3] (setting [7]) and 741 nM in experiment [4] (setting [8]).
On the same counts, the results for `O=C(Nc1cnc(-n2nccn2)c(Cl)c1)c1cnn(-c2ccccc2)c1C(F)(F)F` [Cpd 5, N-(5-Chloro-6-(2H-1,2,3-triazol-2-yl)pyridin-3-yl)-1-phenyl-5-(trifluoromethyl)-1H-pyrazole-4-carboxamide] are 741 nM, 295 nM, 263 nM and 380 nM.
Take `O=C(Nc1cnc(-n2nccn2)c(Cl)c1)c1cnn(-c2ccc(F)cn2)c1C(F)(F)F` [Cpd 7, N-(5-Chloro-6-(2H-1,2,3-triazol-2-yl)pyridin-3-yl)-1-(5-fluoropyridin-2-yl)-5-(trifluoromethyl)-1H-pyrazole-4-carboxamide]: the IC50 is 417 nM in experiment [1] (TMD8, 24 h); 912 nM in experiment [2]; 407 nM in experiment [3] (TMD8, 24 h); 1550 nM in experiment [4] (OCI-Ly3, 96 h).
As for `COc1ncccc1-n1ncc(C(=O)Nc2cnc(-n3nccn3)c(Cl)c2)c1C(F)(F)F` [Cpd 14, N-(5-Chloro-6-(2H-1,2,3-triazol-2-yl)pyridin-3-yl)-1-(2-methoxypyridin-3-yl)-5-(trifluoromethyl)-1H-pyrazole-4-carboxamide], the IC50 was 282 nM in experiment [1] (setting [7]), 148 nM in experiment [2], 316 nM in experiment [3] (setting [7]) and 2140 nM in experiment [4] (setting [8]).
In the same order, the values of `N#Cc1cccc(-n2ncc(C(=O)Nc3cnc(-n4nccn4)c(Cl)c3)c2C(F)(F)F)c1` [Cpd 21, N-(5-chloro-6-(2H-1,2,3-triazol-2-yl)pyridin-3-yl)-1-(3-cyanophenyl)-5-(trifluoromethyl)-1H-pyrazole-4-carboxamide] are 1260 nM, 1120 nM, 912 nM and 741 nM.
Consider `Cc1ccnc(-n2ncc(C(=O)Nc3cnc(-n4nccn4)c(Cl)c3)c2C(F)(F)F)c1` [Cpd 22, N-(5-chloro-6-(2H-1,2,3-triazol-2-yl)pyridin-3-yl)-1-(4-methylpyridin-2-yl)-5-(trifluoromethyl)-1H-pyrazole-4-carboxamide], for which the IC50 was 724 nM in experiment [1] (TMD8, 24 h); 724 nM in experiment [2]; 437 nM in experiment [3] (TMD8, 24 h); 490 nM in experiment [4] (OCI-Ly3, 96 h).
For the compound `Cc1ccc(-n2ncc(C(=O)Nc3cnc(-n4nccn4)c(Cl)c3)c2C(F)(F)F)nc1` [Cpd 23, N-(5-chloro-6-(2H-1,2,3-triazol-2-yl)pyridin-3-yl)-1-(5-methylpyridin-2-yl)-5-(trifluoromethyl)-1H-pyrazole-4-carboxamide], the IC50 in experiment [1] (TMD8, 24 h) is 1070 nM; in experiment [2], 933 nM; in experiment [3] (TMD8, 24 h) it was 891 nM; in experiment [4] (OCI-Ly3, 96 h), 479 nM.
Consider `Cc1ccc(-n2ncc(C(=O)Nc3cnc(-n4nccn4)c(Cl)c3)c2C(F)(F)F)cc1` [Cpd 27, N-(5-chloro-6-(2H-1,2,3-triazol-2-yl)pyridin-3-yl)-1-(p-tolyl)-5-(trifluoromethyl)-1H-pyrazole-4-carboxamide], for which the IC50 was 1380 nM in experiment [1] (setting [7]), 851 nM in experiment [2], 1200 nM in experiment [3] (setting [7]) and 3890 nM in experiment [4] (setting [8]).
In the same order, the values of `Cc1ccccc1-n1ncc(C(=O)Nc2cnc(-n3nccn3)c(Cl)c2)c1C(F)(F)F` [Cpd 29, N-(5-chloro-6-(2H-1,2,3-triazol-2-yl)pyridin-3-yl)-1-(o-tolyl)-5-(trifluoromethyl)-1H-pyrazole-4-carboxamide] are 132 nM, 151 nM, 135 nM and 1230 nM.
Turning to `COc1nccc(-n2ncc(C(=O)Nc3cnc(-n4nccn4)c(C#N)c3)c2C(F)(F)F)c1Cl` [Cpd 32, 1-(3-Chloro-2-methoxypyridin-4-yl)-N-(5-cyano-6-(2H-1,2,3-triazol-2-yl)pyridin-3-yl)-5-(trifluoromethyl)-1H-pyrazole-4-carboxamide], the IC50 in experiment [1] (setting [7]) is 646 nM; in experiment [2] it was 589 nM; in experiment [3] (setting [7]), 1120 nM; in experiment [4] (setting [8]), 575 nM.
For the compound `N#Cc1cc(NC(=O)c2cnn(-c3ncc(F)cc3Br)c2C(F)(F)F)cnc1-n1nccn1` [Cpd 34, 1-(3-Bromo-5-fluoropyridin-2-yl)-N-(5-cyano-6-(2H-1,2,3-triazol-2-yl)pyridin-3-yl)-5-(trifluoromethyl)-1H-pyrazole-4-carboxamide], the IC50 worked out at 631 nM in experiment [1] (TMD8, 24 h); 145 nM in experiment [2]; 407 nM in experiment [3] (TMD8, 24 h); 457 nM in experiment [4] (OCI-Ly3, 96 h).
As for `N#Cc1cc(NC(=O)c2cnn(-c3nccc(N)c3Cl)c2C(F)(F)F)cnc1-n1nccn1` [Cpd 120, 1-(4-amino-3-chloropyridin-2-yl)-N-(5-cyano-6-(2H-1,2,3-triazol-2-yl)pyridin-3-yl)-5-(trifluoromethyl)-1H-pyrazole-4-carboxamide], the IC50 in experiment [1] (setting [7]) was found to be 1350 nM; in experiment [2], 126 nM; in experiment [5], 741 nM; in experiment [3] (setting [7]), 1100 nM; in experiment [6], 794 nM.
As to `CN1CCc2c1cccc2-n1ncc(C(=O)Nc2cnc(-n3nccn3)c(C#N)c2)c1C(F)(F)F` [Cpd 128, N-(5-cyano-6-(2H-1,2,3-triazol-2-yl)pyridin-3-yl)-1-(1-methylindolin-4-yl)-5-(trifluoromethyl)-1H-pyrazole-4-carboxamide], the IC50 was 2240 nM in experiment [1] (setting [7]), 229 nM in experiment [2] and 1020 nM in experiment [3] (setting [7]).
In the same order, the values of `N#Cc1cc(NC(=O)c2cnn(-c3cccc4c3CCN4)c2C(F)(F)F)cnc1-n1nccn1` [Cpd 130, N-(5-cyano-6-(2H-1,2,3-triazol-2-yl)pyridin-3-yl)-1-(indolin-4-yl)-5-(trifluoromethyl)-1H-pyrazole-4-carboxamide] are 245 nM, 234 nM and 437 nM.
